# Experimental data: patent publication US9109041B2, “Analog compounds of analgesic peptides derived from the venom of crotalus durissus terrificus snakes, their uses, compositions, methods of preparation and purification” (priority 2004, dated 2015)
# Columns and labels:
# [1] = test system: spontaneous pain induced by the Walker 256 tumor; assay: spontaneous pain induced by the Walker 256 tumor (lifting, licking); type: in vivo, rat; conditions: 6 μg/kg p.o.
# From the text: (§1) The Walker 256 tumor cells were kindly provided by Prof. Dr. Rui Curi, of the Physiology and Biophysics Department of the Biomedical Science Institute of the University of São Paulo. The tumor-bearing animal was sacrificed and the tumoral tissue was removed, placed on a Petri dish containing 0.9% saline. Then, the tumor was cut in smaller parts, and transferred into a beaker containing saline. The material was triturated with a fine-cut, until the tumor is totally fragmented. Then, this material was filtered in gauze and the liquid collected in a beaker. All procedures were performed on ice. The material of the beaker was transferred to 50 ml plastic tubes and centrifuged at 4° C., for 10 minutes, at 1200 rpm. After centrifugation, the supernatant was rejected and the precipitate resuspended in saline 0.9%. For cell counts, the suspension of cells was diluted (1:100) in saline. An aliquot (200 μl) was removed and placed in a test tube containing 200 μl of 1% Trypan blue. The cell number was determined in optical microscope using Neubauer's chamber. The cellular viability was determined considering viable the light-refracting cells.
# (§2) After determining the number of cells, 1 ml of the suspension, containing 1×10^7 cells, was injected by intraperitoneal route, on the right side of the rats to obtain liquid tumor (ascites).
# (§3) Five days after injection, the rats with ascites were sacrificed and the ascetic fluid collected from the peritoneal cavity and placed in a test tube containing EDTA. The liquid was diluted 100 times with phosphate-buffered saline (PBS), pH 7.4. The cell count was done after dilution with Trypan blue, as described above. Tumor cell count was ascertained to 1×10^6 cells in 100 μl, by dilution with PBS. This number of cells was determined in preliminary tests for induction of cancer pain in rats. In this final cell number adjustment, the volume of antibiotic (Benzetacil®) added to the suspension (150,000 units of antibiotic/10 ml of suspension), was taken into consideration. The antibiotic was used in order to avoid microbial contamination. The cells were injected by intraplantar route into one of the rat hind paws. Control animals were injected with PBS into the contralateral paw, in the same experimental conditions.
# (§4) Hyperalgesia, allodynia and spontaneous pain were determined before (BM-basal measurement) and 5 days after tumor cell injection, before (IM-initial measurement) and 2 hours after (FM-Final measurement) peptide administration.
# (§5) The results were analyzed comparing the mean values of the basal and initial measurements, or of the initial and final measurements or, when determined, by comparing the mean values obtained in the different experimental groups (Tables 17, 18, 19).
# [2] = test system: hyperalgesia induced by the Walker 256 tumor; assay: hyperalgesia induced by the Walker 256 tumor (cancer pain); type: in vivo, rat
# From the text: as §1, §2, §3, §4, §5
# (§6) For this purpose, the animals were treated with CTOP, a specific μ receptor antagonist (20 μg/paw), nor-BNI, a specific κ receptor antagonist (50 μg/paw) or with ICI 174,864, a specific δ receptor antagonist (10 μg/paw). The antagonists were injected by intraplantar route. The peptide was administered in the dose of 6 μg/kg, orally, immediately before the injection of the opioid antagonists. The results were analyzed comparing the mean values of the basal and initial measurements, or of the initial and final measurements or, when determined, by comparing the mean values obtained in the different experimental groups ( Table 20).
# [3] = test system: spontaneous pain induced by constriction of the sciatic nerve; assay: spontaneous pain induced by constriction of the sciatic nerve (licking and lifting time); type: in vivo, rat; conditions: 5 μg/kg p.o.
# Procedure: For the induction of neuropathic pain, surgery was performed in the sciatic nerve, in accordance with the method described by Bennett, G. J and Xie, Y. K. (Pain, 33:87-107, 1988). The animals were anesthetized with halothane. The sciatic nerve was exposed in the middle region of the thigh, moving away the femoral biceps muscle. Close to the trifurcation of the sciatic nerve, 7 mm of distance from the trifurcation, 4 loose ligations were performed (chromed catgut 4-0) around it, distant from each other in approximately 1 mm. The bindings were performed along the nerve, up to 4-5 mm from the initial point. The incision was sutured in layers, using silk suture thread number 4-0.
# For the observation of the signs that characterize spontaneous pain, the animals were placed one by one, in a transparent plastic box. After the acclimatizing period of 30 minutes, the rats were observed during 10 minutes, determining the duration of the licking (in seconds) and lifting time. The licking and lifting activities, performed as part of the normal grooming behavior of animals, were not considered.
# [4] = test system: thermal nociception (hot plate 50° C.); assay: hot plate test; type: in vivo, mice; conditions: for latency time (reaction time), FM (s) ± S.E.M.: 2 hours after treatment; for latency time (reaction time), IM (s) ± S.E.M.: before treatment
# Procedure: This test is used for evaluation of drugs that interfere with nociception in the Central Nervous System, as for example, morphine and derived products, since the thermal stimulus activates directly the nociceptor, avoiding tissue lesion and consequent inflammation. The data obtained in this test indicate that the antinociceptive effect of a compound is mainly due to a supraspinally integrated response.
# This test was performed in accordance to the method described by Jacob, J. J. C. and Ramabadran, K. (Br. J. Pharmacol., 64:91-8, 1978). For this test, mice were placed on a metal surface kept at 50° C.±1. Results are expressed as the latency time (in seconds—s) to observe the licking of both anterior feet (reaction time). This test was applied before (initial measurement—IM) and 2 hours after the treatment of the animals (final measurement—FM) with saline (control) or with the synthetic peptide (1 and 3 μg/kg in 200 μl), orally. Each animal was considered as their own control. The results were analyzed comparing the mean values of the IM and FM or, when determined, by comparing the mean values obtained in the different experimental groups (Table 22).
# [5] = test system: allodynia induced by the Walker 256 tumor; assay: allodynia induced by the Walker 256 tumor (cancer pain); type: in vivo, rat
# From the text: as §1, §2, §3, §4, §5, §6
# [6] = 5th day after tumor implantation, 2 hours after peptide
# [7] = 5th day after tumor implantation, before peptide
# [8] = 6 μg/kg p.o. + CTOP 20 μg/paw i.pl., 5th day, 2 hours after peptide
# [9] = 6 μg/kg p.o. + CTOP 20 μg/paw i.pl., 5th day, before peptide
# [10] = 6 μg/kg p.o. + CTOP 20 μg/paw i.pl., before injection of the tumor
# [11] = 6 μg/kg p.o. + ICI 174,864 10 μg/paw i.pl., 5th day, 2 hours after peptide
# [12] = 6 μg/kg p.o. + ICI 174,864 10 μg/paw i.pl., 5th day, before peptide
# [13] = 6 μg/kg p.o. + ICI 174,864 10 μg/paw i.pl., before injection of the tumor
# [14] = 6 μg/kg p.o. + nor-BNI 50 μg/paw i.pl., 5th day, 2 hours after peptide
# [15] = 6 μg/kg p.o. + nor-BNI 50 μg/paw i.pl., 5th day, before peptide
# [16] = 6 μg/kg p.o. + nor-BNI 50 μg/paw i.pl., before injection of the tumor
# [17] = peptide 6 μg/kg p.o., CTOP 20 μg/paw i.pl.
# [18] = peptide 6 μg/kg p.o., ICI 174,864 10 μg/paw i.pl.
# [19] = peptide 6 μg/kg p.o., nor-BNI 50 μg/paw i.pl.
# [20] = day 14 after surgery, before peptide, 10 min observation
substance,measurement,setting,value
Xaa-Phe-Ser-Pro-Glu-Asn-Cys-Gln-Gly-Glu-Ser-Gln-Pro-Cys [SEQ ID NO: 2],"Licking duration, FM",[1]; [6],1.6 ± 0.81 s
same,"Lifting duration, FM",[1]; [6],25 ± 7.72 s
same,"Licking duration, IM",[1]; [7],15 ± 1.46 s
same,"Lifting duration, IM",[1]; [7],204 ± 30.74 s
same,"Licking duration, BM",[1]; before injection of the tumor,0 ± 0.00 s
same,"Lifting duration, BM",[1]; before injection of the tumor,0 ± 0.00 s
same,"pain threshold, FM",[2]; [8],72 ± 2.81 g
same,"pain threshold, IM",[2]; [9],37 ± 2.81 g
same,"pain threshold, BM",[2]; [10],70 ± 1.29 g
same,"pain threshold, FM",[2]; [11],52 ± 1.22 g
same,"pain threshold, IM",[2]; [12],33 ± 3.39 g
same,"pain threshold, BM",[2]; [13],67 ± 1.22 g
same,"pain threshold, FM",[2]; [14],32 ± 1.05 g
same,"pain threshold, IM",[2]; [15],32 ± 2.14 g
same,"pain threshold, BM",[2]; [16],69 ± 1.53 g
same,"pain threshold, FM","[2]; 6 μg/kg p.o., 5th day after tumor implantation, 2 hours after peptide (Table 17)",76 ± 2.29 g
same,"pain threshold, IM","[2]; 6 μg/kg p.o., 5th day after tumor implantation, before peptide (Table 17)",27 ± 1.01 g
same,"pain threshold, FM","[2]; 6 μg/kg p.o., 5th day, 2 hours after peptide (Table 20)",75 ± 2.88 g
same,"pain threshold, IM","[2]; 6 μg/kg p.o., 5th day, before peptide (Table 20)",36 ± 2.39 g
same,"pain threshold, BM","[2]; 6 μg/kg p.o., before injection of the tumor (Table 17)",69 ± 1.30 g
same,"pain threshold, BM","[2]; 6 μg/kg p.o., before injection of the tumor (Table 20)",71 ± 1.25 g
same,effect of the mu opioid receptor antagonist on the anti-hyperalgesic effect of the peptide,[2]; [17],did not alter
same,effect of the delta opioid receptor antagonist on the anti-hyperalgesic effect of the peptide,[2]; [18],partially inhibited
same,effect of the kappa opioid receptor antagonist on the anti-hyperalgesic effect of the peptide,[2]; [19],blocked
same,"lifting time, FM 1 h",[3]; 1 h after peptide,2 ± 0.21 s
same,"paw licking time, FM 1 h",[3]; 1 h after peptide,2 ± 0.21 s
same,"lifting time, FM 3 h",[3]; 3 h after peptide,2 ± 0.26 s
same,"paw licking time, FM 3 h",[3]; 3 h after peptide,2 ± 0.21 s
same,"lifting time, FM 24 h",[3]; 24 h after peptide,2 ± 0.22 s
same,"paw licking time, FM 24 h",[3]; 24 h after peptide,2 ± 0.39 s
same,"lifting time, FM 48 h",[3]; 48 h after peptide,1.0 ± 0.16 s
same,"paw licking time, FM 48 h",[3]; 48 h after peptide,1.5 ± 0.22 s
same,"lifting time, FM 72 h",[3]; 72 h after peptide,2 ± 0.26 s
same,"paw licking time, FM 72 h",[3]; 72 h after peptide,1.5 ± 0.22 s
same,"lifting time, FM 96 h",[3]; 96 h after peptide,1.5 ± 0.16 s
same,"paw licking time, FM 96 h",[3]; 96 h after peptide,21 ± 0.26 s
same,"lifting time, FM 120",[3]; 120 h after peptide,95 ± 0.50 s
same,"paw licking time, FM 120",[3]; 120 h after peptide,21 ± 0.38 s
same,"lifting time, IM",[3]; [20],97 ± 0.43 s
same,"paw licking time, IM",[3]; [20],22 ± 0.64 s
same,"latency time (reaction time), FM (s) ± S.E.M.",[4]; 1 μg/kg p.o.,25 ± 0.68 s
same,"latency time (reaction time), IM (s) ± S.E.M.",[4]; 1 μg/kg p.o.,18 ± 0.64 s
same,"latency time (reaction time), FM (s) ± S.E.M.",[4]; 3 μg/kg p.o.,27 ± 1.06 s
same,"latency time (reaction time), IM (s) ± S.E.M.",[4]; 3 μg/kg p.o.,22 ± 1.01 s
same,"paw withdrawal threshold (allodynia), FM",[5]; [8],4.98 ± 0.03 log 10 (mg × 10)
same,"paw withdrawal threshold (allodynia), IM",[5]; [9],4.41 ± 0.00 log 10 (mg × 10)
same,"paw withdrawal threshold (allodynia), BM",[5]; [10],5.03 ± 0.02 log 10 (mg × 10)
same,"paw withdrawal threshold (allodynia), FM",[5]; [11],4.56 ± 0.03 log 10 (mg × 10)
same,"paw withdrawal threshold (allodynia), IM",[5]; [12],4.41 ± 0.00 log 10 (mg × 10)
same,"paw withdrawal threshold (allodynia), BM",[5]; [13],4.99 ± 0.02 log 10 (mg × 10)
same,"paw withdrawal threshold (allodynia), FM",[5]; [14],4.41 ± 0.00 log 10 (mg × 10)
same,"paw withdrawal threshold (allodynia), IM",[5]; [15],4.41 ± 0.00 log 10 (mg × 10)
same,"paw withdrawal threshold (allodynia), BM",[5]; [16],4.97 ± 0.00 log 10 (mg × 10)
same,"paw withdrawal threshold (allodynia), FM","[5]; 6 μg/kg p.o., 5th day after tumor implantation, 2 hours after peptide (Table 18)",4.97 ± 0.00 log 10 (mg × 10)
same,"paw withdrawal threshold (allodynia), IM","[5]; 6 μg/kg p.o., 5th day after tumor implantation, before peptide (Table 18)",4.41 ± 0.00 log 10 (mg × 10)
same,"paw withdrawal threshold (allodynia), FM","[5]; 6 μg/kg p.o., 5th day, 2 hours after peptide (Table 21)",4.97 ± 0.00 log 10 (mg × 10)
same,"paw withdrawal threshold (allodynia), IM","[5]; 6 μg/kg p.o., 5th day, before peptide (Table 21)",4.41 ± 0.00 log 10 (mg × 10)
same,"paw withdrawal threshold (allodynia), BM","[5]; 6 μg/kg p.o., before injection of the tumor (Table 18)",4.97 ± 0.00 log 10 (mg × 10)
same,"paw withdrawal threshold (allodynia), BM","[5]; 6 μg/kg p.o., before injection of the tumor (Table 21)",4.97 ± 0.00 log 10 (mg × 10)
same,effect of the mu opioid receptor antagonist on the anti-allodynic effect of the peptide,[5]; [17],did not alter
same,effect of the delta opioid receptor antagonist on the anti-allodynic effect of the peptide,[5]; [18],partially inhibited
same,effect of the kappa opioid receptor antagonist on the anti-allodynic effect of the peptide,[5]; [19],blocked
